Measurements: ChEMBL document CHEMBL1201862, “PubChem BioAssay data set” (2004)
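Growth conditions: 96-well plates. Treatment: test compound, 48 hours, 5 concentrations. Analysis: linear interpolation between bracketing concentrations; unreached endpoints set to highest concentration. GI50 = concentration required for 50% inhibition of growth.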 Active and inactive are the calls of the source. Cut-off read from the data, not from the text of the source: active = GI50 up to about 1.1 µM and inactive = higher.

How the values were obtained:
Assay in all cases: NCI anticancer screen, dose series, 48 h
SR = test system: SR
Hs-578T = test system: Hs-578T
MDA-MB-231 = test system: MDA-MB-231
MDA-MB-435 = test system: MDA-MB-435
BT-549 = test system: BT-549
SK-MEL-28 = test system: SK-MEL-28
SF-268 = test system: SF-268
U-251 = test system: U-251
ACHN = test system: ACHN
NCI-H23 = test system: NCI-H23
M14 = test system: M14
OVCAR-3 = test system: OVCAR-3
CAKI-1 = test system: CAKI-1
NCI/ADR-RES = test system: NCI/ADR-RES
SNB-75 = test system: SNB-75
MDA-N = test system: MDA-N
KM12 = test system: KM12
NCI-H522 = test system: NCI-H522
HOP-62 = test system: HOP-62

For COc1cccc2cc(C(N)=O)c(=N)oc12, the GI50 (SR) was 58.2 µM (inactive), the GI50 (Hs-578T) was 31.5 µM (inactive) and the GI50 (MDA-MB-231) was 65.2 µM (inactive). The GI50 (MDA-MB-435) was 42.3 µM (inactive), the GI50 (BT-549) was > 100 µM (inactive) and the GI50 (SK-MEL-28) was 46.5 µM (inactive). The GI50 (SF-268) was 51.1 µM (inactive), the GI50 (U-251) was 81.5 µM (inactive) and the GI50 (ACHN) was 40.3 µM (inactive). For the same compound, the GI50 (NCI-H23) was 48.4 µM (inactive), the GI50 (M14) was 46.6 µM (inactive) and the GI50 (OVCAR-3) was 36.9 µM (inactive). For the same compound, the GI50 (CAKI-1) was 39.4 µM (inactive), the GI50 (NCI/ADR-RES) was 57.1 µM (inactive) and the GI50 (SNB-75) was 63.2 µM (inactive). For the same compound, the GI50 (MDA-N) was 59.7 µM (inactive) and the GI50 (KM12) was 42.6 µM (inactive).

For Cc1cc(=O)oc2cc(OC(=O)N(C)C)c(Cl)cc12, the GI50 (SR) was > 100 µM (inactive), the GI50 (Hs-578T) was > 100 µM (inactive) and the GI50 (MDA-MB-231) was > 100 µM (inactive). The GI50 (MDA-MB-435) was 65 µM (inactive), the GI50 (BT-549) was > 100 µM (inactive) and the GI50 (SK-MEL-28) was > 100 µM (inactive). For the same compound, the GI50 (NCI-H522) was 57.7 µM (inactive), the GI50 (SF-268) was 86.5 µM (inactive) and the GI50 (U-251) was 53 µM (inactive). For the same compound, the GI50 (ACHN) was > 100 µM (inactive), the GI50 (HOP-62) was 25.1 µM (inactive) and the GI50 (NCI-H23) was > 100 µM (inactive). For the same compound, the GI50 (M14) was 83.9 µM (inactive), the GI50 (OVCAR-3) was > 100 µM (inactive) and the GI50 (CAKI-1) was > 100 µM (inactive). For the same compound, the GI50 (NCI/ADR-RES) was > 100 µM (inactive), the GI50 (MDA-N) was > 100 µM (inactive) and the GI50 (KM12) was > 100 µM (inactive).

With O=c1onc2n1-c1cc(Cl)ccc1C(=S)N1CSCC21 (stereo unspecified) the GI50 (SR) was 34.6 µM (inactive), the GI50 (Hs-578T) was > 100 µM (inactive) and the GI50 (MDA-MB-231) was > 100 µM (inactive). For the same compound, the GI50 (MDA-MB-435) was > 100 µM (inactive), the GI50 (BT-549) was > 100 µM (inactive) and the GI50 (SK-MEL-28) was > 100 µM (inactive). The GI50 (NCI-H522) was > 100 µM (inactive), the GI50 (SF-268) was > 100 µM (inactive) and the GI50 (U-251) was > 100 µM (inactive). The GI50 (ACHN) was > 100 µM (inactive), the GI50 (HOP-62) was > 100 µM (inactive) and the GI50 (M14) was > 100 µM (inactive). For the same compound, the GI50 (OVCAR-3) was > 100 µM (inactive), the GI50 (CAKI-1) was > 100 µM (inactive) and the GI50 (NCI/ADR-RES) was > 100 µM (inactive). For the same compound, the GI50 (SNB-75) was 31.3 µM (inactive), the GI50 (MDA-N) was > 100 µM (inactive) and the GI50 (KM12) was 89.7 µM (inactive).

COC1=CC(=O)c2c(cc(COP(=O)(OCC3OC(n4cc(F)c(=O)[nH]c4=O)CC3O)N(C)CCCCCl)n2C)C1=O (stereo unspecified) was tested, and the GI50 (SR) was < 0.01 µM (active), the GI50 (Hs-578T) was 0.0877 µM (active) and the GI50 (MDA-MB-231) was 3.82 µM (inactive). For the same compound, the GI50 (MDA-MB-435) was 1.04 µM (active), the GI50 (BT-549) was 1.56 µM (inactive) and the GI50 (NCI-H522) was 0.495 µM (active). The GI50 (SF-268) was < 0.01 µM (active), the GI50 (U-251) was 0.409 µM (active) and the GI50 (ACHN) was < 0.01 µM (active). For the same compound, the GI50 (HOP-62) was 0.0413 µM (active), the GI50 (NCI-H23) was 0.142 µM (active) and the GI50 (M14) was 0.136 µM (active). The GI50 (OVCAR-3) was 1.2 µM (inactive), the GI50 (CAKI-1) was 0.0102 µM (active) and the GI50 (NCI/ADR-RES) was 0.678 µM (active). For the same compound, the GI50 (SNB-75) was < 0.0124 µM (active), the GI50 (MDA-N) was 0.41 µM (active) and the GI50 (KM12) was 10 µM (inactive).

For Cc1ccc(Sc2ccccc2C23OC(C)(C4C(=O)N(c5ccccc5)C(=O)C42)N(C)C3=O)cc1 (stereo unspecified), the GI50 (SR) was > 100 µM (inactive), the GI50 (Hs-578T) was 59.4 µM (inactive) and the GI50 (MDA-MB-231) was > 100 µM (inactive). The GI50 (MDA-MB-435) was > 100 µM (inactive), the GI50 (BT-549) was > 100 µM (inactive) and the GI50 (SK-MEL-28) was > 100 µM (inactive). For the same compound, the GI50 (NCI-H522) was > 100 µM (inactive), the GI50 (SF-268) was > 100 µM (inactive) and the GI50 (U-251) was > 100 µM (inactive). For the same compound, the GI50 (ACHN) was > 100 µM (inactive), the GI50 (NCI-H23) was > 100 µM (inactive) and the GI50 (M14) was > 100 µM (inactive). For the same compound, the GI50 (OVCAR-3) was > 100 µM (inactive), the GI50 (CAKI-1) was > 100 µM (inactive) and the GI50 (NCI/ADR-RES) was > 100 µM (inactive). For the same compound, the GI50 (SNB-75) was > 100 µM (inactive), the GI50 (MDA-N) was > 100 µM (inactive) and the GI50 (KM12) was > 100 µM (inactive).

For Clc1ccc(C2Nc3ccccc3C3=NCCN32)cc1 (stereo unspecified), the GI50 (SR) was 21 µM (inactive), the GI50 (Hs-578T) was 33.3 µM (inactive) and the GI50 (MDA-MB-231) was 23.5 µM (inactive). The GI50 (MDA-MB-435) was 16.6 µM (inactive), the GI50 (BT-549) was 24.3 µM (inactive) and the GI50 (SK-MEL-28) was 18 µM (inactive). For the same compound, the GI50 (SF-268) was 20.7 µM (inactive), the GI50 (U-251) was 25.9 µM (inactive) and the GI50 (ACHN) was 35.3 µM (inactive). For the same compound, the GI50 (HOP-62) was 23.4 µM (inactive), the GI50 (NCI-H23) was 19.5 µM (inactive) and the GI50 (M14) was 15.1 µM (inactive). For the same compound, the GI50 (OVCAR-3) was 33.5 µM (inactive), the GI50 (CAKI-1) was 26.5 µM (inactive) and the GI50 (NCI/ADR-RES) was 19.5 µM (inactive). For the same compound, the GI50 (MDA-N) was 17.4 µM (inactive) and the GI50 (KM12) was 18.3 µM (inactive).

For COc1ccc(OC)c(-c2cn3c(n2)sc2ccccc23)c1, the GI50 (SR) was > 100 µM (inactive), the GI50 (Hs-578T) was 39.7 µM (inactive) and the GI50 (MDA-MB-231) was > 100 µM (inactive). For the same compound, the GI50 (MDA-MB-435) was > 100 µM (inactive), the GI50 (BT-549) was > 100 µM (inactive) and the GI50 (NCI-H522) was > 100 µM (inactive). For the same compound, the GI50 (SF-268) was > 100 µM (inactive), the GI50 (U-251) was > 100 µM (inactive) and the GI50 (ACHN) was > 100 µM (inactive). For the same compound, the GI50 (HOP-62) was > 100 µM (inactive), the GI50 (NCI-H23) was > 100 µM (inactive) and the GI50 (OVCAR-3) was > 100 µM (inactive). The GI50 (CAKI-1) was > 100 µM (inactive), the GI50 (NCI/ADR-RES) was > 100 µM (inactive) and the GI50 (SNB-75) was > 100 µM (inactive). The GI50 (MDA-N) was > 100 µM (inactive) and the GI50 (KM12) was > 100 µM (inactive).

For CCN(CC)C(=S)SC(C(=O)Nc1nnc(-c2ccc(Cl)cc2)o1)c1ccccc1 (stereo unspecified), the GI50 (SR) was 4.97 µM (inactive), the GI50 (Hs-578T) was 35.4 µM (inactive) and the GI50 (MDA-MB-231) was 26 µM (inactive). For the same compound, the GI50 (MDA-MB-435) was 14.2 µM (inactive), the GI50 (BT-549) was 28.5 µM (inactive) and the GI50 (SK-MEL-28) was 14 µM (inactive). For the same compound, the GI50 (NCI-H522) was 4.62 µM (inactive), the GI50 (SF-268) was 15.6 µM (inactive) and the GI50 (U-251) was 10 µM (inactive). The GI50 (ACHN) was 6.64 µM (inactive), the GI50 (HOP-62) was 14.7 µM (inactive) and the GI50 (NCI-H23) was 22.1 µM (inactive). The GI50 (M14) was 10.8 µM (inactive), the GI50 (OVCAR-3) was 3.21 µM (inactive) and the GI50 (CAKI-1) was 11.7 µM (inactive). For the same compound, the GI50 (NCI/ADR-RES) was 5.68 µM (inactive), the GI50 (MDA-N) was 17.3 µM (inactive) and the GI50 (KM12) was 17.9 µM (inactive).
